Experimental data as given in patent US20230072854A1, “PARAXANTHINE-BASED BIOACTIVE COMPOSITION AND METHOD OF USE THEREOF” (Ingenious Ingredients, LP, priority 2020, published 2023).
“Also recorded” adds a separate entry of the source.

Legend:
volunteers [1] = assay: Sternberg task test, double blind crossover vs placebo; format: in vivo, human; details: 200 mg; for Sternberg Mean Response Time: in ms (unit assumed)
Excerpt: (§1) In a double blind, randomized, crossover, and repeated measures manner, 13 volunteers (10 male, 3 female, average age 24±5 years, average body weight 72.91±19.30 kg, average height 169.96±11.84 cm, average BMI 24.80±3.71 kg/m^2) participated in this study. Participants limited ingestion of caffeine and other stimulants to normal use for 48-hours, fasted for 8-hours and reported to the lab and completed 4 different cognitive function tests to assess short-term attention and inhibitory control (Go-No Go Test), sustained attention (Vigilance Task Test), working memory (Sternberg Task Test) and cognitive flexibility (Berg-Washington Card Sorting Test). Once completed, the participants ingested either a placebo or 200 mg of paraxanthine (WGI, TX, USA) with 8 ounces of water. Participants repeated cognitive function tests 1, 2, 3, 4, 5, and 6 hours after ingestion of the supplement. After one-week participants repeated the experiment while consuming the other treatment.
(§2) Data were analyzed by a General Linear Model multivariate and univariate analyses with repeated measures using body weight as a covariate. Data are expressed as means±standard deviations for the placebo (PLA) and Paraxanthine (PrX). Greenhouse-Geisser univariate p-levels are listed for time (T), weight×time (W×T) and group×time (G×T) interactions effects. Pairwise comparison is indicated by the following superscripts: †=[…] difference from baseline value; *=[…] difference from baseline; a=[…] difference between groups; b=[…] difference between groups. Eta2 vaules of […] are considered small, […] medium, and >0.14 are considered large.
A test of working memory, ability to make use of short-term memory. A lower reaction time means participants can access their working memory faster. The Sternberg Task test is a widely used paradigm for studying short-term/working memory (STM/WM) involving cognitive control processes.

Toxicity, LD50 = details: in vivo
volunteers [2] = assay: Psychomotor vigilance task test, double blind crossover vs placebo; format: in vivo, human; details: 200 mg
Excerpt: as §1, §2
The psychomotor vigilance task test is a sustained attention, reaction timed task that measures the speed with which participants respond to a visual stimulus. Lower Reaction time, especially maintained throughout this many tests represents better ability to sustain attention.

subjects = assay: Paraxanthine pre-workout, subject reports; format: in vivo, human; details: single subject, own words
Description: Health subjects were administered paraxanthine and asked to report their experience. Subjects reported the following.

Structure (SMILES): Cn1c(=O)[nH]c2ncn(C)c2c1=O [paraxanthine, 1,7-dimethylxanthine]
- letter length 2 present reaction time (FIG. 18) (volunteers [1]): significantly improved reaction times
- letter length 4 absent reaction time (FIG. 16) (volunteers [1]): no significant differences over time or between treatments
- letter length 4 present reaction time (FIG. 19) (volunteers [1]): no significant differences over time or between treatments, with Paraxanthine showing greater improvements during hours 3-6
- letter length 6 absent reaction time (FIG. 17) (volunteers [1]): no significant differences over time or between treatments, with Paraxanthine showing greater improvement during hours 3-5
- Letter Length 2: Absent Reaction Time (Millisecond) (volunteers [1]; Mean (SEM) over all hours): 577.6 ± 27.1 Millisecond
- Letter Length 2: Present Reaction Time (Millisecond) (volunteers [1]; Mean (SEM) over all hours): 503.5 ± 17.8 Millisecond
- Letter Length 4: Absent Reaction Time (Millisecond) (volunteers [1]; Mean (SEM) over all hours): 741.3 ± 40.0 Millisecond
- Letter Length 4: Present Reaction Time (Millisecond) (volunteers [1]; Mean (SEM) over all hours): 617.9 ± 25.1 Millisecond
- Letter Length 6: Absent Reaction Time (Millisecond) (volunteers [1]; Mean (SEM) over all hours): 970.0 ± 55.7 Millisecond
- Letter Length 6: Present Reaction Time (Millisecond) (volunteers [1]; Mean (SEM) over all hours): 808.2 ± 40.2 Millisecond
- Sternberg Mean Response Time (volunteers [1]; Mean (SEM) over all hours): 703.1 ± 32.4
- short-term/working memory, letter length 6 present reaction time (volunteers [1]; after 4 and 5 hours): significantly increased short-term/working memory
- Letter Length 2: Absent Reaction Time (Millisecond) (volunteers [1]; hour 0 (before ingestion)): 621.9 ± 154.3 Millisecond
- Letter Length 2: Present Reaction Time (Millisecond) (volunteers [1]; hour 0 (before ingestion)): 541.1 ± 104.2 Millisecond
- Letter Length 4: Absent Reaction Time (Millisecond) (volunteers [1]; hour 0 (before ingestion)): 748.7 ± 148.5 Millisecond
- Letter Length 4: Present Reaction Time (Millisecond) (volunteers [1]; hour 0 (before ingestion)): 625.9 ± 100.6 Millisecond
- Letter Length 6: Absent Reaction Time (Millisecond) (volunteers [1]; hour 0 (before ingestion)): 1,012.5 ± 334.2 Millisecond
- Letter Length 6: Present Reaction Time (Millisecond) (volunteers [1]; hour 0 (before ingestion)): 841.6 ± 254.0 Millisecond
- Sternberg Mean Response Time (volunteers [1]; hour 0 (before ingestion)): 731.9 ± 163.0
- Letter Length 2: Absent Reaction Time (Millisecond) (volunteers [1]; hour 1 after ingestion): 596.7 Millisecond
- Letter Length 2: Present Reaction Time (Millisecond) (volunteers [1]; hour 1 after ingestion): 516.6 Millisecond
- Letter Length 4: Absent Reaction Time (Millisecond) (volunteers [1]; hour 1 after ingestion): 755.5 Millisecond
- Letter Length 4: Present Reaction Time (Millisecond) (volunteers [1]; hour 1 after ingestion): 642.9 Millisecond
- Letter Length 6: Absent Reaction Time (Millisecond) (volunteers [1]; hour 1 after ingestion): 986.5 Millisecond
- Letter Length 6: Present Reaction Time (Millisecond) (volunteers [1]; hour 1 after ingestion): 829.7 Millisecond
- Sternberg Mean Response Time (volunteers [1]; hour 1 after ingestion): 721.3
- Letter Length 2: Absent Reaction Time (Millisecond) (volunteers [1]; hour 2 after ingestion): 579.7 Millisecond
- Letter Length 2: Present Reaction Time (Millisecond) (volunteers [1]; hour 2 after ingestion): 503.8 Millisecond
- Letter Length 4: Absent Reaction Time (Millisecond) (volunteers [1]; hour 2 after ingestion): 758.4 Millisecond
- Letter Length 4: Present Reaction Time (Millisecond) (volunteers [1]; hour 2 after ingestion): 614.7 Millisecond
- Letter Length 6: Absent Reaction Time (Millisecond) (volunteers [1]; hour 2 after ingestion): 1,011.3 Millisecond
- Letter Length 6: Present Reaction Time (Millisecond) (volunteers [1]; hour 2 after ingestion): 800.0 Millisecond
- Sternberg Mean Response Time (volunteers [1]; hour 2 after ingestion): 711.3
- letter length 2 absent reaction time (FIG. 15) (volunteers [1]; hour 3, 4 and 5): trend towards improved reaction times
- Letter Length 2: Absent Reaction Time (Millisecond) (volunteers [1]; hour 3 after ingestion): 559.3 Millisecond
- Letter Length 2: Present Reaction Time (Millisecond) (volunteers [1]; hour 3 after ingestion): 497.1 Millisecond
- Letter Length 4: Absent Reaction Time (Millisecond) (volunteers [1]; hour 3 after ingestion): 762.3 Millisecond
- Letter Length 4: Present Reaction Time (Millisecond) (volunteers [1]; hour 3 after ingestion): 634.6 Millisecond
- Letter Length 6: Absent Reaction Time (Millisecond) (volunteers [1]; hour 3 after ingestion): 980.9 Millisecond
- Letter Length 6: Present Reaction Time (Millisecond) (volunteers [1]; hour 3 after ingestion): 830.6 Millisecond
- Sternberg Mean Response Time (volunteers [1]; hour 3 after ingestion): 710.8
- Letter Length 2: Absent Reaction Time (Millisecond) (volunteers [1]; hour 4 after ingestion): 553.8 Millisecond
- Letter Length 2: Present Reaction Time (Millisecond) (volunteers [1]; hour 4 after ingestion): 488.3 Millisecond
- Letter Length 4: Absent Reaction Time (Millisecond) (volunteers [1]; hour 4 after ingestion): 701.3 Millisecond
- Letter Length 4: Present Reaction Time (Millisecond) (volunteers [1]; hour 4 after ingestion): 598.2 Millisecond
- Letter Length 6: Absent Reaction Time (Millisecond) (volunteers [1]; hour 4 after ingestion): 914.8 Millisecond
- Letter Length 6: Present Reaction Time (Millisecond) (volunteers [1]; hour 4 after ingestion): 778.1 Millisecond
- Sternberg Mean Response Time (volunteers [1]; hour 4 after ingestion): 672.4
- Letter Length 2: Absent Reaction Time (Millisecond) (volunteers [1]; hour 5 after ingestion): 558.8 Millisecond
- Letter Length 2: Present Reaction Time (Millisecond) (volunteers [1]; hour 5 after ingestion): 490.3 Millisecond
- Letter Length 4: Absent Reaction Time (Millisecond) (volunteers [1]; hour 5 after ingestion): 717.5 Millisecond
- Letter Length 4: Present Reaction Time (Millisecond) (volunteers [1]; hour 5 after ingestion): 617.1 Millisecond
- Letter Length 6: Absent Reaction Time (Millisecond) (volunteers [1]; hour 5 after ingestion): 913.5 Millisecond
- Letter Length 6: Present Reaction Time (Millisecond) (volunteers [1]; hour 5 after ingestion): 761.8 Millisecond
- Sternberg Mean Response Time (volunteers [1]; hour 5 after ingestion): 676.5
- Letter Length 2: Absent Reaction Time (Millisecond) (volunteers [1]; hour 6 after ingestion): 568.9 Millisecond
- Letter Length 2: Present Reaction Time (Millisecond) (volunteers [1]; hour 6 after ingestion): 483.8 Millisecond
- Letter Length 4: Absent Reaction Time (Millisecond) (volunteers [1]; hour 6 after ingestion): 742.2 Millisecond
- Letter Length 4: Present Reaction Time (Millisecond) (volunteers [1]; hour 6 after ingestion): 590.3 Millisecond
- Letter Length 6: Absent Reaction Time (Millisecond) (volunteers [1]; hour 6 after ingestion): 970.7 Millisecond
- Letter Length 6: Present Reaction Time (Millisecond) (volunteers [1]; hour 6 after ingestion): 816.4 Millisecond
- Sternberg Mean Response Time (volunteers [1]; hour 6 after ingestion): 695.4
- letter length 6 present reaction time (FIG. 20) (volunteers [1]; hours 4 and 5): improved present reaction time
- decrease of mean response times in the Sternberg Test compared to baseline (volunteers [1]; overall, vs baseline): 3.9%
- LD50 (Toxicity, LD50): 1600 mg/kg
- Trial #2 reaction time (FIG. 11) (volunteers [2]): maintained reaction time
- Trial #10 reaction time (FIG. 12) (volunteers [2]): no significant time or between treatment differences
- effect on average reaction times in the vigilance task test (volunteers [2]): no effect
- Reaction Time (milliseconds) Average (volunteers [2]; Mean (SEM) over all hours): 2,550 milliseconds
- Reaction Time (milliseconds) Trial #2 (volunteers [2]; Mean (SEM) over all hours): 2,659 milliseconds
- Reaction Time (milliseconds) Trial #10 (volunteers [2]; Mean (SEM) over all hours): 2,639 milliseconds
- Reaction Time (milliseconds) Trial #20 (volunteers [2]; Mean (SEM) over all hours): 2,590 milliseconds
- Reaction Time (milliseconds) Average (volunteers [2]; hour 0 (before ingestion)): 2,546 milliseconds
- Reaction Time (milliseconds) Trial #2 (volunteers [2]; hour 0 (before ingestion)): 2,601 milliseconds
- Reaction Time (milliseconds) Trial #10 (volunteers [2]; hour 0 (before ingestion)): 2,607 milliseconds
- Reaction Time (milliseconds) Trial #20 (volunteers [2]; hour 0 (before ingestion)): 2,680 milliseconds
- Reaction Time (milliseconds) Average (volunteers [2]; hour 1 after ingestion): 2,552 milliseconds
- Reaction Time (milliseconds) Trial #2 (volunteers [2]; hour 1 after ingestion): 2,602 milliseconds
- Reaction Time (milliseconds) Trial #10 (volunteers [2]; hour 1 after ingestion): 2,418 milliseconds
- Reaction Time (milliseconds) Trial #20 (volunteers [2]; hour 1 after ingestion): 2,458 milliseconds
- Reaction Time (milliseconds) Average (volunteers [2]; hour 2 after ingestion): 2,508 milliseconds
- Reaction Time (milliseconds) Trial #2 (volunteers [2]; hour 2 after ingestion): 3,005 milliseconds
- Reaction Time (milliseconds) Trial #10 (volunteers [2]; hour 2 after ingestion): 2,651 milliseconds
- Reaction Time (milliseconds) Trial #20 (volunteers [2]; hour 2 after ingestion): 2,220 milliseconds
- Reaction Time (milliseconds) Average (volunteers [2]; hour 3 after ingestion): 2,559 milliseconds
- Reaction Time (milliseconds) Trial #2 (volunteers [2]; hour 3 after ingestion): 2,591 milliseconds
- Reaction Time (milliseconds) Trial #10 (volunteers [2]; hour 3 after ingestion): 2,788 milliseconds
- Reaction Time (milliseconds) Trial #20 (volunteers [2]; hour 3 after ingestion): 2,445 milliseconds
- Reaction Time (milliseconds) Average (volunteers [2]; hour 4 after ingestion): 2,538 milliseconds
- Reaction Time (milliseconds) Trial #2 (volunteers [2]; hour 4 after ingestion): 3,005 milliseconds
- Reaction Time (milliseconds) Trial #10 (volunteers [2]; hour 4 after ingestion): 2,412 milliseconds
- Reaction Time (milliseconds) Trial #20 (volunteers [2]; hour 4 after ingestion): 2,792 milliseconds
- Reaction Time (milliseconds) Average (volunteers [2]; hour 5 after ingestion): 2,570 milliseconds
- Reaction Time (milliseconds) Trial #2 (volunteers [2]; hour 5 after ingestion): 2,441 milliseconds
- Reaction Time (milliseconds) Trial #10 (volunteers [2]; hour 5 after ingestion): 2,783 milliseconds
- Reaction Time (milliseconds) Trial #20 (volunteers [2]; hour 5 after ingestion): 2,544 milliseconds
- Reaction Time (milliseconds) Average (volunteers [2]; hour 6 after ingestion): 2,577 milliseconds
- Reaction Time (milliseconds) Trial #2 (volunteers [2]; hour 6 after ingestion): 2,360 milliseconds
- Reaction Time (milliseconds) Trial #10 (volunteers [2]; hour 6 after ingestion): 2,813 milliseconds
- Reaction Time (milliseconds) Trial #20 (volunteers [2]; hour 6 after ingestion): 3,005 milliseconds
- experience reported by subject (subjects): happier, better, more energy and focused; also recorded: phenomenal; also recorded: clean energy, but not stressed or stimmed; also recorded: it works
